One series has as its system FRDA cells. Nature of the series: Tolerability by FRDA cells. The following applies: among the different ubiquitin-competing molecules. Format: cell-based, human.
Another series concerns aconitase. Nature of the series: Aconitase assay in FRDA lymphoblasts. Format: cell-based, human. To be noted: FRDA lymphoblasts GM16798; 50 μM; 6 days. As to the method: (§1) FRDA lymphoblasts and fibroblasts were washed twice with ice-cold Dulbecco's Phosphate Buffered Saline (DPBS) and lysed in CelLytic M buffer (Sigma-Aldrich) supplemented with Complete protease inhibitor cocktail, EDTA-free (Roche). Aconitase activity was measured spectrophotometrically at 340 nm by a coupled reaction of aconitase and isocitrate dehydrogenase. The assay reactions contained […] of cell extract in 50 mM Hepes pH 7.4, 1 mM sodium citrate, 0.6 mM MnCl2, 0.2 mM NADP^+ and 2 U/ml isocitrate dehydrogenase (Sigma-Aldrich). Citrate synthase activity was assessed using […] of cell extract with the Citrate Synthase Assay Kit (Sigma-Aldrich CS0720). The aconitase activities were normalized with respect to citrate synthase ratios; one milliunit of enzyme was defined as the amount of protein that converted 1 nmol of NADP^+ in 1 min at 25° C. The intracellular ATP content was measured in black microtiter plates using […] of cell extract with the ATP Bioluminescence Assay Kit CLS II (Roche) according to the manufacturer's protocol.
(§2) FRDA lymphoblasts GM16798 were left untreated or treated for 6 days with 50 μM Formula IV. Their genetically-related healthy control GM16241 lymphoblasts were left untreated. […] Aconitase activity and ATP levels were measured as described previously.

Series [1] concerns the target T1, frataxin (Homo sapiens, UniProt Q16595).
T1 sequence (Q16595 42-210): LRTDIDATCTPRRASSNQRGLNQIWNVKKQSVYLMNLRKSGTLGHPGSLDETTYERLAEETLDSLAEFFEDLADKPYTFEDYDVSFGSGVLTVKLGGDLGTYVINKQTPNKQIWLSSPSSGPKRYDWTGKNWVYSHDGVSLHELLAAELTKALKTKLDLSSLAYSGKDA
Nature of the series: Frataxin accumulation in FRDA fibroblasts (FACS, SDS-PAGE/western blot). Type of series: cell-based. The arrangement: HEK-293 Flp-In cells stably transfected with frataxin^1-210; expressed in transfected cells. To be noted: FRDA fibroblasts GM03816; 100 μM; 3 days. As to the method: (§3) Human embryonic kidney HEK-293 cells and Hela cells were maintained in DMEM supplemented with 10% FBS. HEK-293 were transfected with the calcium/phosphate precipitation method, using 20 μg total DNA (10 μg pIRES-frataxin and 10 μg HA-Ub, or corresponding empty vectors) on 10 cm dishes. Hela cells were transfected using Lipofectamine 2000 reagents (Invitrogen), according to manufacturer's instructions. Where indicated, the day after transfection, cells were treated for 16 h with 10 μM proteasome inhibitors, MG132 or Lactacystin, or 50 ng/ml DUB inhibitor Ubiquitin-Aldehyde. […]
(§4) Cell extracts were prepared in modified RIPA buffer (10 mM sodium phosphate pH7.2, 150 mM NaCl, 1% Na deoxycholate, 0.1% SDS, 1% Np40, 2 mM EDTA) or IP buffer (50 mM Tris-HCl, pH 7.5, 150 mM NaCl, 1% Nonidet P-40, 5 mM EDTA, 5 mM EGTA) supplemented with Complete protease inhibitor cocktail and 2 mM N-Ethylmaleimide (NEM). For immunoblotting, 100 μg of protein extract were separated on 12% SDS-PAGE, blotted onto nitrocellulose membrane and detected with specific antibodies. […] Immunocomplexes were then resolved and analysed by SDS-PAGE. […]
Cells were collected after the indicated treatments and fixed for 20 minutes in 4% paraformaldehyde at room temperature. […] After washing 3 times with PBS cells were analyzed by flow cytometry (Becton Dickinson). […]

Another series deals with FRDA fibroblasts GM03816. Nature of the series: Intracellular ATP content in FRDA fibroblasts. Type of series: cell-based, human. The following applies: 100 μM, 3 days. The procedure:
as §1, with “The aconitase activities were normalized with respect to citrate synthase ratios; one milliunit of enzyme was defined as the amount of protein that converted 1 nmol of NADP^+ in 1 min at 25° C.” left out
FRDA fibroblasts GM03816 were treated for 3 days with 100 μM Formula IV. Cells were then fixed, stained with anti-frataxin antibody or anti-Bcl2, as a control, and analyzed by flow cytometry. […] Total cell extracts were resolved on SDS-PAGE and analyzed with anti-frataxin antibody, or anti-tubulin, as a loading control. […] ATP levels were quantitated as described previously.

Series [2] has as its target T1, frataxin. Kind of series: Frataxin accumulation in FRDA lymphoblasts (FACS, SDS-PAGE/western blot). Format: cell-based. The following applies: 50 μM, 6 days. The procedure:
as §3, with “Ubiquitin-Aldehyde. Flp-In-HEK-293 cells (Invitrogen) are HEK-293 variants allowing the stable and isogenic integration and expression of a transfected gene. Flp-In-HEK-293 cells were maintained in DMEM supplemented with 10% FBS and transfected with the calcium/phosphate precipitation method. Briefly, cells were plated on 10 cm dishes and transfected with 10 μg total DNA. The HEK-293 clone stably expressing frataxin^1-210 was previously described (4).” for “Ubiquitin-Aldehyde.”
as §4
Cells were collected after the indicated treatments and fixed for 20 minutes in 4% paraformaldehyde at room temperature. […] After washing 3 times with PBS cells were analyzed by flow cytometry (Becton Dickinson).
FRDA lymphoblasts GM15850 were cultured for 6 days in the presence of 50 μM Formula IV or Formula VI. Cells were then fixed, stained with anti-frataxin antibody or anti-Bcl2, as a control, and analyzed by flow cytometry. […]

Series [3] concerns the target T1, frataxin. Kind of series: Frataxin accumulation in HEK-293 Flp-In cells stably expressing frataxin 1-210 (WB, FACS). Format: cell-based. The arrangement: HEK-293 Flp-In cells stably transfected with frataxin^1-210; expressed in transfected cells. To be noted: HEK-293 Flp-In frataxin 1-210; 100 μM; 18 hours. As to the method:
Human embryonic kidney HEK-293 cells and Hela cells were maintained in DMEM supplemented with 10% FBS. HEK-293 were transfected with the calcium/phosphate precipitation method, using 20 μg total DNA (10 μg pIRES-frataxin and 10 μg HA-Ub, or corresponding empty vectors) on 10 cm dishes. Hela cells were transfected using Lipofectamine 2000 reagents (Invitrogen), according to manufacturer's instructions. Where indicated, the day after transfection, cells were treated for 16 h with 10 μM proteasome inhibitors, MG132 or Lactacystin, or 50 ng/ml DUB inhibitor Ubiquitin-Aldehyde. Flp-In-HEK-293 cells (Invitrogen) are HEK-293 variants allowing the stable and isogenic integration and expression of a transfected gene. Flp-In-HEK-293 cells were maintained in DMEM supplemented with 10% FBS and transfected with the calcium/phosphate precipitation method. Briefly, cells were plated on 10 cm dishes and transfected with 10 μg total DNA. The HEK-293 clone stably expressing frataxin^1-210 was previously described (4). The HEK-293 clone stably expressing frataxin^K147R was obtained from cultures in selection medium containing 100 μg/ml hygromycin B (Invitrogen). FRDA lymphoblasts GM15850, GM16798 and […], as well control lymphoblasts GM15851, GM16241 and GM16215, were maintained in RPMI supplemented with 15% FBS. Treatments with specific ubiquitin-competing molecules were performed in 20% FBS containing medium. FRDA fibroblasts GM03816 were maintained in DMEM supplemented with 15% FBS.
Cell extracts were prepared in modified RIPA buffer (10 mM sodium phosphate pH7.2, 150 mM NaCl, 1% Na deoxycholate, 0.1% SDS, 1% Np40, 2 mM EDTA) or IP buffer (50 mM Tris-HCl, pH 7.5, 150 mM NaCl, 1% Nonidet P-40, 5 mM EDTA, 5 mM EGTA) supplemented with Complete protease inhibitor cocktail and 2 mM N-Ethylmaleimide (NEM). For immunoblotting, 100 μg of protein extract were separated on 12% SDS-PAGE, blotted onto nitrocellulose membrane and detected with specific antibodies. For in vivo detection of ubiquitin-conjugates […] and 50 ng/ml Ubiquitin-Aldehyde were added to the lysis buffer. For immunoprecipitation, 5 mg of total protein extract prepared as above were incubated for 1-2 h at 4° C. with specific antibodies, previously conjugated to Protein G-sepharose (GE Healthcare). Immunocomplexes were then resolved and analysed by SDS-PAGE. […] Densitometric analysis was performed using ImageJ software.
Cells were collected after the indicated treatments and fixed for 20 minutes in 4% paraformaldehyde at room temperature. Cells were then permeabilized and blocked in a blocking solution (3% FBS in PBS) containing 0.2% Triton, for 1 hour at room temperature. Cells were then incubated overnight at 4° C. with anti-frataxin monoclonal antibody (MAB-10485, Immunological Science) or anti-Bcl2 monoclonal antibody (sc-509, Santa Cruz) diluted 1:200 in blocking solution. Cells were then washed 3 times in PBS and incubated for 1 hour at room temperature with FITC-conjugated goat anti-mouse IgG/IgM (BD Bioscience Pharmingen) diluted 1:200 in blocking solution. After washing 3 times with PBS cells were analyzed by flow cytometry (Becton Dickinson).
HEK-293 Flp-In cells stably transfected with frataxin^1-210 were treated for the indicated times with 10 μM MG132. Total cell extracts were blotted as in A. One representative experiment out of four performed with similar results is shown in FIG. 18.
Formula III induces frataxin precursor accumulation. HEK-293 Flp-In cells stably expressing frataxin^1-210 were treated for the indicated days with 20 μM of Formula III or 10 μM MG132. Total cell extracts were resolved on SDS-PAGE and analyzed with anti-frataxin antibody, or anti-tubulin, as a loading control.
Formula III induces mature frataxin accumulation. HEK-293 Flp-In cells stably expressing frataxin^1-210 were treated and analyzed as in B. One representative experiment out of three performed with similar results is shown FIG. 5C. […]

Series [4] has as its system FRDA lymphoblasts GM16798. Nature of the series: Intracellular ATP content in FRDA lymphoblasts. Type of series: cell-based, human. The following applies: 50 μM, 6 days. As to the method:
as §1, §2

Turning to `O=[N+]([O-])c1cccc(/C=N/NS(=O)(=O)c2ccc(Cl)cc2)c1O` [Formula IV], the “tolerability by FRDA cells” value in the series on FRDA cells is “best tolerated”. The aconitase activity result in the series with aconitase is on record as “significantly boost”. For the same compound, the “frataxin accumulation by FACS and SDS-PAGE/western blot” value on frataxin [1] is “frataxin accumulation can be detected as early as 3 days of treatment”. The ATP levels result in the series on FRDA fibroblasts GM03816 is recorded as “Rescue of ATP levels can also be achieved”; in series [4], “significantly boost”. Also, on frataxin [2] (FRDA lymphoblasts GM15850, GM16798 and GM16214), the “accumulation of mature frataxin by SDS-PAGE and western blot” value was “accumulation of mature frataxin can be detected”. Further, at frataxin [2] (FRDA lymphoblasts GM15850), the “frataxin accumulation by FACS analysis” value is “discrete frataxin accumulation detectable in all cells”. Further, the “frataxin accumulation by WB and FACS analysis” value on frataxin [3] is reported as “effective in inducing frataxin accumulation”.

These data come from patent US8703749B2, “Compositions and methods for treating Friedreich's Ataxia” (priority 2009, dated 2014).
